IC50 data for 24 compounds are collected here from EP4663640A1 (Shanghai Institute of Materia Medica, Chinese Academy of …, priority 2023, dated 2024).

The structures appear in SMILES notation.

The target of the first experiment is T1, hTRPC5 (Homo sapiens, UniProt Q9UL62).
T1 construct: expressed in transfected cells; host or cells: HEK-293
T1 sequence (Q9UL62 1-973): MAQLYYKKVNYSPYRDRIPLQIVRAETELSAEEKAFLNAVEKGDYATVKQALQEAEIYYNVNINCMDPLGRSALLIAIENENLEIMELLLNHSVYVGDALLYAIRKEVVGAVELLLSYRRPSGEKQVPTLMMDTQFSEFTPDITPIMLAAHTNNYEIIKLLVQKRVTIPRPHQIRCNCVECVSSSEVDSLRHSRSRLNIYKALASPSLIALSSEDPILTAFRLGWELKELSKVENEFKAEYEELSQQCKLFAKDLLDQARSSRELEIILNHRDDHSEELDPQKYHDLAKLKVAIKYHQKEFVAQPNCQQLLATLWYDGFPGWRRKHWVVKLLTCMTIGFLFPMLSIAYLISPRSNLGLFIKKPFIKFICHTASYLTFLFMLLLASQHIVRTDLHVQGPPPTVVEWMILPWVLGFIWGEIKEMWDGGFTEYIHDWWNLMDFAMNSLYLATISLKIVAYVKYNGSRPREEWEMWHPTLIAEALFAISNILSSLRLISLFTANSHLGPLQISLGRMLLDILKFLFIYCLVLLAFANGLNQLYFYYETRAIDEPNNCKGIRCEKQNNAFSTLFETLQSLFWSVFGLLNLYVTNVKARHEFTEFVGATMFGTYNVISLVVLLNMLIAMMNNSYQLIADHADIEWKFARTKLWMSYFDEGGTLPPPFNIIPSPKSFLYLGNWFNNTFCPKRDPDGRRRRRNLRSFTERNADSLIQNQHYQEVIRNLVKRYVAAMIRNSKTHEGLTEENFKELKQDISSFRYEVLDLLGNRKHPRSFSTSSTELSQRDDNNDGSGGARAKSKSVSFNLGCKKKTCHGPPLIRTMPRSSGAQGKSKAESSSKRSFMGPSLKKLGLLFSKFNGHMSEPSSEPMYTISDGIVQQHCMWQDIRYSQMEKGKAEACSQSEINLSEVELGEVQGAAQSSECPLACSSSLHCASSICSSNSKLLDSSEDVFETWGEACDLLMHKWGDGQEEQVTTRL
Nature of the experiment: TRPC5 inhibitory activity assay (FLIPR calcium fluorescence, Englerin A stimulation). It counts as cell-based.
Conditions: not given
On the procedure:
HEK-293 cells expressing hTRPC3, hTRPC4 or hTRPC5 were seeded into black-bottomed 96-well plates coated with poly-lysine (PDL), with 2×10^4 cells per well. After 8 h of culture, the original culture medium was discarded, and 60 µL of Fluo-4/AM dye with a final concentration of 4 µM was added. The plates were incubated at 37 °C for 60 min, and then rinsed five times with calcium flow detection buffer. […] Then, the agonist Englerin A (EA) (MedChemExpress, Shanghai, China, final concentration of 0.3nM) was added, and the fluorescence signal was collected for 600 seconds. The fluorescence signal of the trajectory diagram is represented by F/F0, wherein F is the fluorescence signal at different time points, and F0 is the basic fluorescence signal, that is, the average value of the fluorescence signal at the first 10 time points. […] The area under the curve of the change in fluorescence intensity after adding EA was calculated. IC50 value was calculated using log[Inhibitor] vs. response - Variable slope, taking into account the area under the curve and the log value of the concentration of the compound.
`Cn1c(=O)n(CCCO)c(=O)c2c1nc(C1CCC3(CC1)OCCO3)n2Cc1ccc(Cl)cc1` [Example E13, 7-(4-chlorobenzyl)-1-(3-hydroxypropyl)-3-methyl-8-(1,4-dioxacyclo[4.5]dec-8-yl)-3,7-dihydro-1H-purine-2,6-dione]: the 50% inhibitory concentration (IC50) was determined as 82.1 nM.

The experiment is the same for the next values; noted with them: Table 1, TRPC5 channels, HEK-293 cells expressing hTRPC5; read-out: FLIPR IC50.
`CC(C)n1c(=O)n(CCCO)c(=O)c2c1nc(C1CC1C1CCCC1)n2Cc1ccc(Cl)cc1` (stereo not drawn) [Example E15, 7-(4-chlorobenzyl)-8-(2-cyclopentylcyclopropyl)-1-(3-hydroxypropyl)-3-isopropyl-3,7-dihydro-1H-purine-2,6-dione]: the IC50 worked out at 76 nM. On the same count and under the same terms, the figure for `CCC1CCC(F)(c2nc3c(c(=O)n(CCCO)c(=O)n3C)n2Cc2ccc(Cl)cc2)CC1` (stereo not drawn) [Example E30, 7-(4-chlorobenzyl)-8-(4-ethyl-1-fluorocyclohexyl)-1-(3-hydroxypropyl)-3-methyl-3,7-dihydro-1H-purine-2,6-dione] is 281 nM; for `Cn1c(=O)n(CCCO)c(=O)c2c1nc(C1(F)CCC(C(F)(F)F)CC1)n2Cc1ccc(C#N)cc1` (stereo not drawn) [Example E73, 4-((8-(1-fluoro-4-(trifluoromethyl)cyclohexyl)-1-(3-hydroxypropyl)-3-methyl-2,6-dioxo-1,2,3,6-tetrahydro-7H-purin-7-yl)methyl)benzonitrile] it is 1.88 nM. Same read-out and setting: as for `COC1(c2nc3c(c(=O)n(CCCO)c(=O)n3C)n2Cc2ccc(Cl)cc2)CCC(C(F)(F)F)CC1` (stereo not drawn) [Example E22, 7-(4-chlorobenzyl)-1-(3-hydroxypropyl)-8-(1-methoxy-4-(trifluoromethyl)cyclohexyl)-3-methyl-3,7-dihydro-1H-purine-2,6-dione], the figure is 198 nM.

For `Cn1c(=O)n(CCCO)c(=O)c2c1nc(C1(F)CCC(C#N)CC1)n2Cc1ccc(Cl)cc1` (stereo not drawn) [Example E40, 4-(7-(4-chlorobenzyl)-1-(3-hydroxypropyl)-3-methyl-2,6-dioxo-2,3,6,7-tetrahydro-1H-purin-8-yl)-4-fluorocyclohexane-1-carbonitrile], the IC50 came to 3.7 nM.

With `Cn1c(=O)n(CCCO)c(=O)c2c1nc(C1(F)CCC(C(F)(F)F)CC1)n2Cc1ccc(Cl)cc1F` (stereo not drawn) [Example E71, 7-(4-chloro-2-fluorobenzyl)-8-(1-fluoro-4-(trifluoromethyl)cyclohexyl)-1-(3-hydroxypropyl)-3-methyl-3,7-dihydro-1H-purine-2,6-dione], the IC50 worked out at 0.27 nM. The same measure, in the same setting: the figure for `Cn1c(=O)n(CCCO)c(=O)c2c1nc(C1(F)CCC(C(F)(F)F)CC1)n2Cc1ccc(F)c(Cl)c1` (stereo not drawn) [Example E69, 7-(3-chloro-4-fluorobenzyl)-8-(1-fluoro-4-(trifluoromethyl)cyclohexyl)-1-(3-hydroxypropyl)-3-methyl-3,7-dihydro-1H-purine-2,6-dione] is 0.37 nM; for `CC(C)OC1CC=C(c2nc3c(c(=O)n(CCCO)c(=O)n3C)n2Cc2ccc(Cl)cc2)CC1` (stereo not drawn) [Example E8, 7-(4-chlorobenzyl)-1-(3-hydroxypropyl)-8-(4-isopropoxycyclohex-1-en-1-yl)-3-methyl-3,7-dihydro-1H-purine-2,6-dione] it is 19.3 nM.

For the compound `Cn1c(=O)n(CCCO)c(=O)c2c1nc(C1(O)CCC(C(F)(F)F)CC1)n2Cc1ccc(Cl)cc1` (stereo not drawn) [Example E23, 7-(4-chlorobenzyl)-8-(1-hydroxy-4-(trifluoromethyl)cyclohexyl)-1-(3-hydroxypropyl)-3-methyl-3,7-dihydro-1H-purine-2,6-dione], the concentration for half-maximal inhibition (IC50) was determined as 322 nM. On the same count and under the same terms, as for `Cn1c(=O)n(CCCO)c(=O)c2c1nc(C1=Cc3ccccc3C1)n2Cc1ccc(Cl)cc1` [Example E20, 7-(4-chlorobenzyl)-1-(3-hydroxypropyl)-8-(1H-inden-2-yl)-3-methyl-3,7-dihydro-1H-purine-2,6-dione], the figure is 83.8 nM. The same measure, in the same setting: as for `Cn1c(=O)n(CCCO)c(=O)c2c1nc(C1CCC(C(F)(F)F)CC1)n2Cc1ccc(Cl)cc1` (stereo not drawn) [Example E12, 7-(4-chlorobenzyl)-1-(3-hydroxypropyl)-3-methyl-8-(4-(trifluoromethyl)cyclohexyl)-3,7-dihydro-1H-purine-2,6-dione], the figure is 13.5 nM; as for `Cn1c(=O)n(CCCO)c(=O)c2c1cc(C1CCCC1)n2Cc1ccc(Cl)cc1` [Example E2, 5-(4-chlorobenzyl)-6-cyclopentyl-3-(3-hydroxypropyl)-1-methyl-1,5-dihydro-2H-pyrrolo[3,2-d]pyrimidine-2,4(3H)-dione], 112 nM. Same read-out and setting: as for `Cn1c(=O)n(CCCO)c(=O)c2c1nc(C1(F)CCC(C(F)(F)F)CC1)n2Cc1ccc(F)cc1Cl` (stereo not drawn) [Example E67, 7-(2-chloro-4-fluorobenzyl)-8-(1-fluoro-4-(trifluoromethyl)cyclohexyl)-1-(3-hydroxypropyl)-3-methyl-3,7-dihydro-1H-purine-2,6-dione], the figure is 18.9 nM.

As for `Cn1c(=O)n(CCCO)c(=O)c2c1cc(C1=CCCC1)n2Cc1ccc(Cl)cc1` [Example E1, 5-(4-chlorobenzyl)-6-(cyclopent-1-en-1-yl)-3-(3-hydroxypropyl)-1-methyl-1,5-dihydro-2H-pyrrolo[3,2-d]pyrimidine-2,4(3H)-dione], the IC50 was 69.4 nM. Still for that read-out and setting: the figure for `Cn1c(=O)n(CCCO)c(=O)c2c1nc(C1=CC(F)C(C)(C)CC1)n2Cc1ccc(Cl)cc1` (stereo not drawn) [Example E34] is 49.1 nM; for `Cn1c(=O)n(CCCO)c(=O)c2c1nc(C1=CCC(C)(C)CC1)n2Cc1ccc(Cl)cc1` [Example E11, 7-(4-chlorobenzyl)-8-(4,4-dimethylcyclohex-1-en-1-yl)-1-(3-hydroxypropyl)-3-methyl-3,7-dihydro-1H-purine-2,6-dione] it is 8.79 nM. Still for that read-out and setting: the figure for `Cn1c(=O)n(CCCO)c(=O)c2c1nc(/C=N/OC(C)(C)C)n2Cc1ccc(Cl)cc1` [Example E18, (E)-7-(4-chlorobenzyl)-1-(3-hydroxypropyl)-3-methyl-2,6-dioxo-2,3,6,7-tetrahydro-1H-purine-8-carbaldehyde-O-(tert-butyl)oxime] is 43.8 nM; for `CCn1c(=O)n(CCCO)c(=O)c2c1nc(C1(F)CCC(C(F)(F)F)CC1)n2Cc1ccc(Cl)c(F)c1` (stereo not drawn) [Example E51, 7-(4-chloro-3-fluorobenzyl)-3-ethyl-8-(1-fluoro-4-(trifluoromethyl)cyclohexyl)-1-(3-hydroxypropyl)-3,7-dihydro-1H-purine-2,6-dione] it is 3.19 nM. The same measure, in the same setting: the figure for `Cn1c(=O)n(CCCO)c(=O)c2c1nc(C1=CCC(C(F)(F)F)CC1)n2Cc1ccc(Cl)cc1` (stereo not drawn) [Example E41, 7-(4-chlorobenzyl)-1-(3-hydroxypropyl)-3-methyl-8-(4-(trifluoromethyl)cyclohex-1-en-1-yl)-3,7-dihydro-1H-purine-2,6-dione] is 55.5 nM. Regarding `CC1CCC(F)(c2nc3c(c(=O)n(CCCO)c(=O)n3C)n2Cc2ccc(Cl)cc2)CC1` (stereo not drawn) [Example E39, 7-(4-chlorobenzyl)-8-(1-fluoro-4-methylcyclohexyl)-1-(3-hydroxypropyl)-3-methyl-3,7-dihydro-1H-purine-2,6-dione], the IC50 was found to be 4.63 nM. The same measure, in the same setting: the figure for `CC(C)n1c(=O)n(CCCO)c(=O)c2c1nc(C1(F)CCC(C(F)(F)F)CC1)n2Cc1ccc(Cl)cc1` (stereo not drawn) [Example E53, 7-(4-chlorobenzyl)-8-(1-fluoro-4-(trifluoromethyl)cyclohexyl)-1-(3-hydroxypropyl)-3-isopropyl-3,7-dihydro-1H-purine-2,6-dione] is 41.4 nM; for `CCn1c(=O)n(CCCO)c(=O)c2c1nc(C1=CCC(C(F)(F)F)CC1)n2Cc1ccc(Cl)c(F)c1` (stereo not drawn) [Example E57, 7-(4-chloro-3-fluorobenzyl)-3-ethyl-1-(3-hydroxypropyl)-8-(4-(trifluoromethyl)cyclohex-1-en-1-yl)-3,7-dihydro-1H-purine-2,6-dione] it is 52.9 nM; for `Cn1c(=O)n(CCCO)c(=O)c2c1nc(C1(F)CCC(C(F)(F)F)CC1)n2Cc1ccc(F)cc1F` (stereo not drawn) [Example E65, 7-(2,4-difluorobenzyl)-8-(1-fluoro-4-(trifluoromethyl)cyclohexyl)-1-(3-hydroxypropyl)-3-methyl-3,7-dihydro-1H-purine-2,6-dione] it is 2.85 nM.
